The record followed here is US11091472B2, “PI-kinase inhibitors with anti-infective activity” (The Board of Trustees of the Leland Stanford Junior …, priority 2016, dated 2021).

Entries after “also recorded” stand apart in the source; their conditions may differ. Where only a bound is given, the exact number is not on record here.

As usually defined, the IC50 is the concentration needed to halve the response being measured. A high value points to a need for much substance. What is called EC50 is the concentration that produces a half-maximal response. A word on the CC50: it is the concentration giving 50% cytotoxicity. A higher CC50 goes with lower toxicity to the cells.

One data set has as its target PI4KIIIB (Bos taurus (Bovine), UniProt O02810). In words: PI4KIIIβ kinase assay (immunoprecipitated HA-tagged enzyme, [γ-32P]-ATP). It is filed as biochemical. To be noted: kinase activity.
The target in another data set is PI3K p110a (Homo sapiens (Human), UniProt P42336). The data set can be described thus: PI3K p110a kinase assay. Type of data set: biochemical. The following applies: kinase activity.
Chain of PI3K p110a (P42336 whole entry): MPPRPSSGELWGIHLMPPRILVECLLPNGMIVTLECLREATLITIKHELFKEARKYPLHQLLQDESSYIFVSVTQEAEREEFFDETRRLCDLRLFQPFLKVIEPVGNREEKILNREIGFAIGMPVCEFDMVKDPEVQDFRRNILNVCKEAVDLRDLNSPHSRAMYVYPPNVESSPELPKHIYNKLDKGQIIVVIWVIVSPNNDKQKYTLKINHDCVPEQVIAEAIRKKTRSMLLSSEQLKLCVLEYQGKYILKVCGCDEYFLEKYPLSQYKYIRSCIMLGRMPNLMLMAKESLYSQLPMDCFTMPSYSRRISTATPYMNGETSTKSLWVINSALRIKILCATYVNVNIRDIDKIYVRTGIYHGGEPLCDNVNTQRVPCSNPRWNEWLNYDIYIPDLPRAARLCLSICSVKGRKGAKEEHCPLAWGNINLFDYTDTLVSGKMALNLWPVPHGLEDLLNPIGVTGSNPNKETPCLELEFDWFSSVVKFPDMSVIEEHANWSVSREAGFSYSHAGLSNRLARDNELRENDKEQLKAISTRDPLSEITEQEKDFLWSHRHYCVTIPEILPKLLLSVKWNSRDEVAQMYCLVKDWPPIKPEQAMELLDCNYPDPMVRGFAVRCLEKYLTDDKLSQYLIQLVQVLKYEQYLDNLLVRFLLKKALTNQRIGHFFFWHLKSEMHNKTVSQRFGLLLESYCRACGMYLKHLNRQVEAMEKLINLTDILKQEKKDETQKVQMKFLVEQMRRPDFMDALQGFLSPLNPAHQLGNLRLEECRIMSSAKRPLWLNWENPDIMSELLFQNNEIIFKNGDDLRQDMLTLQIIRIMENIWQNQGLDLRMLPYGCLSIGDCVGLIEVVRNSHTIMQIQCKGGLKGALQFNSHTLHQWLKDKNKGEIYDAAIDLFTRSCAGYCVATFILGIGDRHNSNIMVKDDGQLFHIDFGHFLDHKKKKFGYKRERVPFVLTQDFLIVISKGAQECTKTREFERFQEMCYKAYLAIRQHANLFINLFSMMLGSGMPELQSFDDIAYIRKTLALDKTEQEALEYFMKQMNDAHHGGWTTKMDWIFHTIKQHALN
Chain of PI3K p110a (P27986 whole entry partner): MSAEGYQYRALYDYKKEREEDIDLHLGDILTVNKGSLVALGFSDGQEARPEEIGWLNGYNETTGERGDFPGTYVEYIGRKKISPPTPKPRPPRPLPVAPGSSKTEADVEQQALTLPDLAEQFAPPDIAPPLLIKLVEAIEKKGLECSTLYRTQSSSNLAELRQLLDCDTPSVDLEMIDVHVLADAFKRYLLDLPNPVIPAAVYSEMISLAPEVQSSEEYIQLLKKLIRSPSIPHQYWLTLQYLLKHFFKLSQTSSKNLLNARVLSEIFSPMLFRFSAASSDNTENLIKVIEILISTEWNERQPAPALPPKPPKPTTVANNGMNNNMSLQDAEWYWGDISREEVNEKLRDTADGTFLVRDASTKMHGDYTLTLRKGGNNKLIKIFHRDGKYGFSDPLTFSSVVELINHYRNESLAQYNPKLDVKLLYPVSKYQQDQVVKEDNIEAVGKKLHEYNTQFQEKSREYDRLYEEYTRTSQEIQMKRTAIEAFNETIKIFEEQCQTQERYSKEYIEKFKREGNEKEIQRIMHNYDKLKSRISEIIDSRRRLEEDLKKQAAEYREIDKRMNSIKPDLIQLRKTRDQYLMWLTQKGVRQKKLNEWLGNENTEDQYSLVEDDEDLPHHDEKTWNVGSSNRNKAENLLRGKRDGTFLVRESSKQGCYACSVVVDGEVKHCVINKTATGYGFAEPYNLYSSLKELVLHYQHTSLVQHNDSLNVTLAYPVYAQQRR
The next data set has as its target PI3K p110g (Homo sapiens (Human), UniProt P48736). In words: PI3K p110g kinase assay. It is filed as biochemical. The following applies: kinase activity.
The target of the next data set is PI3KC2B (Homo sapiens (Human), UniProt O00750). The data set can be described thus: PI3KC2B kinase assay. It is filed as biochemical. The following applies: kinase activity. The protocol: PI-kinase assay: Compounds are tested in C.1.1. PI kinase assays as described by Shokat et al., “A membrane capture assay for lipid kinase activity.” Nat. Protoc. 2007; 2(10):2459-66.
(§1) Selected compounds of Table 1 and 2 were prepared and tested for inhibition activity in a variety of kinase assays.

The target in a further data set is PI3KC2G (Homo sapiens (Human), UniProt O75747). In words: PI3KC2G kinase assay. It is filed as biochemical. To be noted: kinase activity. On the procedure: PI-kinase assay: Compounds are tested in C.1.1. PI kinase assays as described by Shokat et al., “A membrane capture assay for lipid kinase activity.” Nat. Protoc.
as §1

In a further data set the test system is HCV2a. In words: microbe, parasite or virus in culture. It is filed as cell-based, HCV. The following applies: Hepatitis C virus, Huh7.5, read-out: HCV2a EC50.
The subject of another data set is Ebola. In words: microbe, parasite or virus in culture. It is filed as cell-based. The following applies: Zaire ebolavirus, read-out: Ebola EC50.
The next data set can be described thus: Cell toxicity (CC50). Type of data set: cell-based. The following applies: human, HuH-7 cells.
Another data set has as its system Coxsackie virus B3. In words: Coxsackie virus B3 cell based antiviral assay. To be noted: Enterovirus B.
The next data set deals with Enterovirus 68. In words: Enterovirus 68 cell based antiviral assay. To be noted: Enterovirus D.
The next data set has as its system Enterovirus 71. The data set can be described thus: Enterovirus 71 cell based antiviral assay. The following applies: Enterovirus A.
A further data set has as its system Poliovirus (WM-3). The data set can be described thus: microbe, parasite or virus in culture. It is filed as cell-based. To be noted: Enterovirus C, read-out: Poliovirus (WM-3) EC50 (uM).
Another data set has as its system NV (GT1). In words: NV (GT1) cell based antiviral assay. The protocol:
Compounds of interest were tested in a variety of cell based assays for antiviral activity.

For data set [1], the system named is Adenovirus 5 (Adenoid 75). The data set can be described thus: Adenovirus 5 cell based antiviral assay. The following applies: Human mastadenovirus C.
The next data set has as its system Dengue virus 2. In words: Dengue virus 2 cell based antiviral assay.
Another data set deals with Influenza A virus H1N1. In words: Influenza A virus H1N1 cell based antiviral assay.
The next data set deals with MERS coronavirus. The data set can be described thus: microbe, parasite or virus in culture. Type of data set: cell-based. To be noted: Middle East respiratory syndrome-related coronavirus, read-out: MERS coronavirus EC50 (uM).
A further data set deals with HRV. In words: Rhinovirus antiviral assay. It is filed as cell-based. To be noted: Human rhinovirus sp.
A further data set deals with EV71. The data set can be described thus: EV71 antiviral assay. Type of data set: cell-based. The following applies: Enterovirus A.
A further data set addresses PI4KIIIA (Homo sapiens (Human), UniProt P42356). The data set can be described thus: PI4KIIIα kinase assay (immunoprecipitated HA-tagged enzyme, [γ-32P]-ATP). Type of data set: biochemical. To be noted: kinase activity.
Another data set concerns PI(4)P. In words: Immunofluorescence of intracellular PI-4 pools in cells. Type of data set: cell-based. To be noted: Huh7.5 cells, uninfected or HCV-infected, 250 nm, 500 nM or 1 uM. The protocol: (§2) To further confirm its mechanism of action the effect of (1) on PI-4 levels was determined in cells using immunofluorescence to monitor the intracellular localized pools of PI-4. The effect of (1) on intracellular pools of PIP2 was tested, which were predicted to be similarly sensitive to inhibition using (1). […] Uninfected Huh7.5 cells or HCV-infected Huh7.5 cells were used. Cells were treated with […], 500 nM or 1 uM concentrations of (1) or vehicle control, and analyzed by immunofluorescence with antibodies to PI(4)P or PI(4,5)P2 along with an antibody to calnexin to control for ER morphology.

The subject of the next data set is PI(4,5)P2. In words: Immunofluorescence of intracellular PIP2 pools in cells. It is filed as cell-based. The following applies: Huh7.5 cells, uninfected or HCV-infected, 250 nm, 500 nM or 1 uM. The protocol:
as §2

A further data set concerns ER-localized calnexin. In words: Calnexin co-staining as control for ER morphology. It is filed as cell-based. The following applies: co-stained with antibody to calnexin. The protocol: as §2
Another data set can be described thus: in vitro. It is filed as cell-based.
The next data set concerns HCV replicon. The following applies: HCV replicon system.
Another data set concerns HCV. In words: HCV standard replication assay. To be noted: Hepatitis C virus, read-out: EC50 against HCV.

Chain of PI3K p110g (P48736 whole entry): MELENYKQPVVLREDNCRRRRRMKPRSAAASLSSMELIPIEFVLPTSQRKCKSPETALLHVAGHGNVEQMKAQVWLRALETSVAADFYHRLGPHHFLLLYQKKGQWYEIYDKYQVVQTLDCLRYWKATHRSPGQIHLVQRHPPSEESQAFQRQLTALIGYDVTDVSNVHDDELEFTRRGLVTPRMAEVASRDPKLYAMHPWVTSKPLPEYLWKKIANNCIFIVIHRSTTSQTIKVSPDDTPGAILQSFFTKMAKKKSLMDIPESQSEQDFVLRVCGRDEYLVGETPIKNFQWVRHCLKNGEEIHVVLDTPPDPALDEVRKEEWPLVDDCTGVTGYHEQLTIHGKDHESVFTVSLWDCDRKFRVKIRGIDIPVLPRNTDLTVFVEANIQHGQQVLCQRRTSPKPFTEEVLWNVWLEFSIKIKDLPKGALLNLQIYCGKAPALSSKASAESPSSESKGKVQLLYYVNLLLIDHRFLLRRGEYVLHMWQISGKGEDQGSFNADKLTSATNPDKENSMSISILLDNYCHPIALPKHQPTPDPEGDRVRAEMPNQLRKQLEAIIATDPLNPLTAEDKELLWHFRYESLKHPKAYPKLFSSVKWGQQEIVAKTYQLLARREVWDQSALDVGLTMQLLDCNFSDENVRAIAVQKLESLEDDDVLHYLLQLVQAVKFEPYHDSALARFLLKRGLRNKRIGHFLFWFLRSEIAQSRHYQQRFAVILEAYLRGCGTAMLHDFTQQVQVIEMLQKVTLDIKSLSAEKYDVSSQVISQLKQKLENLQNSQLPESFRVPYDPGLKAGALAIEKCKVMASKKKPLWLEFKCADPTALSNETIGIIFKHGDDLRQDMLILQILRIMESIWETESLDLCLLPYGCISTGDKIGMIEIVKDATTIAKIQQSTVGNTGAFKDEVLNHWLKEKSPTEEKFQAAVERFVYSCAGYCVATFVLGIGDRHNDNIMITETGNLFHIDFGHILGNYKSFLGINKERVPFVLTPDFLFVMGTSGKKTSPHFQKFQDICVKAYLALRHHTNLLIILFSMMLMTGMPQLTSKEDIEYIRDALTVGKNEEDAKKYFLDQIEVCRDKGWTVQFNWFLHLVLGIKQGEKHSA
Chain of PI4KIIIB (O02810 whole entry): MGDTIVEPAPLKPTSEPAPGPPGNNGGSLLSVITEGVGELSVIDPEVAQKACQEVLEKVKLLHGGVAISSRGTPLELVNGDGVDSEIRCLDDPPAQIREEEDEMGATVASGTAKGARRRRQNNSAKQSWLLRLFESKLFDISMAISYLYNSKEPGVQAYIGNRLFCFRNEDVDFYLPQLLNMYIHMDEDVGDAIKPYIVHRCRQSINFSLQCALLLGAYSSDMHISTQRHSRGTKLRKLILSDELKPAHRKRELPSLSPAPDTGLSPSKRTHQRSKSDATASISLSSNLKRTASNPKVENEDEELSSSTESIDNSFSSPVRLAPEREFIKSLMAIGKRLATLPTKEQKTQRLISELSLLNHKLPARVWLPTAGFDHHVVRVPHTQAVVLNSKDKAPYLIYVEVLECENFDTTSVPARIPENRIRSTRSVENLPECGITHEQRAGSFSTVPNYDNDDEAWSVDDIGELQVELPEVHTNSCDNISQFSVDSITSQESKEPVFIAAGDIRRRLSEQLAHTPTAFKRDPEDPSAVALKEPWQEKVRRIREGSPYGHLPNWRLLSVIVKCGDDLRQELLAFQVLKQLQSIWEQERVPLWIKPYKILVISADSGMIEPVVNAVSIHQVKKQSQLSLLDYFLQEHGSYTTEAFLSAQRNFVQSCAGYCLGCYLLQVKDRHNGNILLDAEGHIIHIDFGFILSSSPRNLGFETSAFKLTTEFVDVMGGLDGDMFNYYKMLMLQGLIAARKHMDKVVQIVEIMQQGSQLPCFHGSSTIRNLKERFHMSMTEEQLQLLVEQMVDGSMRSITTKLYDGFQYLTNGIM

Regarding `COc1ccc(-c2sc(NC(=O)CC3CCOCC3)nc2C)cc1S(=O)(=O)Nc1ccc(O)cc1` [Compound S-227], the concentration for half-maximal inhibition (IC50) on PI4KIIIB was < 100 nM; at PI3K p110a, > 10000 nM; at PI3K p110g it was > 10000 nM; on PI3KC2B, > 10000 nM; against PI3KC2G, 1000 to 10000 nM. Moreover, the concentration giving a half-maximal response (EC50) in the data set with HCV2a is 1 to 100 nM; in the data set with Ebola, 100 to 1000 nM; in the data set on Coxsackie virus B3, 1 to 100 nM; with Enterovirus 68, < 1 nM; in the data set with Enterovirus 71 it was 1 to 100 nM; in the data set on Poliovirus (WM-3), 0.001 to 0.1 µM. Besides, the half-maximal effective concentration (EC50) with NV (GT1) was 100 to 1000 nM; in [1], > 10000 nM; with Dengue virus 2 it was > 10000 nM; with Influenza A virus H1N1, > 10000 nM; in the data set on MERS coronavirus, > 10 µM. For the same compound, the CC50 in “Cell toxicity (CC50)” was > 10000 nM.

Turning to `COc1ccc(-c2sc(NC(C)C3CCOCC3)nc2C)cc1S(=O)(=O)Nc1ccccc1Cl` (stereo not shown) [Compound S-316], the 50% effective concentration (EC50) with HRV (Table 5) was in the range of 1 to 100 nM; in the data set on EV71 (Table 5), 1 to 100 nM; with Coxsackie virus B3, 1 to 100 nM; in the data set on Enterovirus 68 it was 1 to 100 nM; in the data set on Enterovirus 71, 1 to 100 nM; with Poliovirus (WM-3), 0.1 to 1 µM. Moreover, the EC50 in data set [1] was > 10000 nM; in the data set with Dengue virus 2 it was 1000 to 10000 nM; in the data set with Influenza A virus H1N1, 1000 to 10000 nM; in the data set with MERS coronavirus it was 1 to 10 µM.

As to `COc1ccc(-c2sc(NC3CCCCCC3)nc2C)cc1S(=O)(=O)Nc1c(C)cccc1C` [Compound S-98], the 50% inhibitory concentration (IC50) was > 10000 nM at PI4KIIIA, < 100 nM against PI4KIIIB, > 10000 nM against PI3K p110a and > 10000 nM at PI3K p110g. For the same compound, the EC50 in the data set with HCV2a is 1000 to 10000 nM; with HRV, < 1 nM; in the data set with EV71, < 1 nM; with Coxsackie virus B3, 1 to 100 nM; with Enterovirus 68 it was < 1 nM; with Enterovirus 71, 1 to 100 nM. The 50% effective concentration (EC50) was 0.001 to 0.1 µM in the data set with Poliovirus (WM-3); 1000 to 10000 nM with NV (GT1); > 10000 nM in [1]; > 10000 nM in the data set on Dengue virus 2; > 10000 nM with Influenza A virus H1N1; > 10 µM in the data set on MERS coronavirus. For the same compound, in “Cell toxicity (CC50)”, the CC50 was > 10000 nM.

Consider `COc1ccc(-c2sc(NCC3CCCCC3)nc2C)cc1S(=O)(=O)Nc1cccc(C(C)(C)C)c1` [Compound S-32], for which the concentration for a half-maximal effect (EC50) in the data set with HCV2a is 1000 to 10000 nM; with HRV, < 1 nM; in the data set on Ebola it was 1000 to 10000 nM. Besides, the 50% cytotoxic concentration (CC50) in the data set “Cell toxicity (CC50)” was > 10000 nM.

`COc1ccc(-c2sc(NC(=O)C3CCCC3)nc2C)cc1S(=O)(=O)Nc1ccc(O)cc1` [Compound 1]: in the data set on PI(4)P, the “effect on PI-4 (PI(4)P) levels in cells” value is on record as “dose-dependent decrease; also recorded: decreases”. For the same compound, the “effect on intracellular pools of PIP2 (PI(4,5)P2)” value with PI(4,5)P2 is “dose-dependent decrease; also recorded: decreases”. In the data set with ER-localized calnexin, the “effects on the ER” value was “absence of any detectable effects on the ER”. Further, in “in vitro”, the CC50 was > 10000 nM. In the data set with HCV replicon, the selection of resistance entry was “resistance was not able to be selected”. Besides, the EC50 in the data set with HCV worked out at 365 nM.

Take `COc1ccc(-c2sc(NC(C)C3CCOCC3)nc2C)cc1S(=O)(=O)NC1CCC(O)CC1` (stereo not shown) [Compound S-328]: the EC50 with HRV (Table 5) fell in the range of 1 to 100 nM; in the data set with EV71 (Table 5) it was 1 to 100 nM; with Coxsackie virus B3 it was 1 to 100 nM; with Enterovirus 68 it was 1 to 100 nM; in the data set on Enterovirus 71, 1 to 100 nM; with Poliovirus (WM-3), 0.001 to 0.1 µM. Besides, the concentration for a half-maximal effect (EC50) was > 10000 nM in [1], > 10000 nM with Dengue virus 2, > 10000 nM in the data set on Influenza A virus H1N1 and > 10 µM in the data set on MERS coronavirus.
